Data published in patent publication US11261201B2 (priority 2018, dated 2022).
In brackets after ≈: the same amount, converted by molar mass. Counter-ions that a name gives are not always drawn. Like-named read-outs stand apart in the source and are kept apart here.

Assays:
H37RvMA = experiment: Tuberculosis Alamar Blue/Resazurin assay (MIC); format: cell-based; conditions: Mycobacterium tuberculosis, H37RV, read-out: WT H37Rv MTB Activity
E. coli = experiment: Gram negative MIC protocol (OD600, LB, 24 h); conditions: Escherichia coli
Description: (§1) Overnight bacterial cultures were grown in LB with no added antibiotics at 37° C. with shaking. A 1:1000 dilution of these cultures into LB was exposed to concentration gradients of compounds in 96-well plates (100 μL per well assay volume). Resulting plates were incubated at 37° C. for 24 h without shaking, and OD600 was measured at the end of the incubation. MICs were determined as the lowest concentrations at which OD600 remained at baseline.

A. baumannii = experiment: Gram negative MIC protocol (OD600, LB, 24 h); conditions: Acinetobacter baumannii
Description: as §1

[1] = read-out: MIC E. coli delta-TolC LB Media, E. coli delta-TolC, LB media, OD600
[2] = read-out: MIC WT E. coli LB Media, WT E. coli, LB media, OD600
[3] = read-out: MIC A. baumannii LB Media
[4] = read-out: MIC E. coli delta-TolC LB Media, E. coli delta-TolC strain, LB media, 24 h, OD600
[5] = read-out: MIC WT E. coli LB Media, wild-type E. coli, LB media, 24 h, OD600
[6] = read-out: MIC A. baumannii LB Media, A. baumannii, LB media, 24 h, OD600

Compound	MIC (H37RvMA) [µM]	MIC (E. coli; [1]) [µM]	MIC (E. coli; [2]) [µM]	MIC (A. baumannii; [3]) [µM]	MIC (H37RvMA; WT H37Rv MTB) [µM]	MIC (E. coli; [4]) [µM]	MIC (E. coli; [5]) [µM]	MIC (A. baumannii; [6]) [µM]
OC(CNCc1ccccc1)C1CCCCC1 (stereo not shown) [B172]	> 150	96 (≈ 22.4 µg/mL)	170 (≈ 39.7 µg/mL)	> 300				
COC(=O)c1cc(COc2ccccc2CNC(C)CC2CCCCC2)oc1C (stereo not shown) [B272]					150 (≈ 59.9 µg/mL)	12 (≈ 4.79 µg/mL)	> 150	> 150
COCCCOc1ccccc1CNC(C)CC1CCCCC1 (stereo not shown) [B312]					> 150	7 (≈ 2.24 µg/mL)	> 150	> 150
COc1cccc(CNCCC2CCCCC2)c1 [B353]					> 150	> 150	> 150	> 150
FC1(F)C2CCCCC21CCNCc1ccccc1 (stereo not shown) [B183]		> 300	> 300		> 150			> 300
c1cc(CNCCC2CCCCC2)c2[nH]ccc2c1 [B352]					91 (≈ 23.3 µg/mL)	91 (≈ 23.3 µg/mL)	91 (≈ 23.3 µg/mL)	150 (≈ 38.5 µg/mL)
CC1CC(C)CC(C(C)NCc2ccccc2)C1 (stereo not shown) [B79]		> 150	> 150		91 (≈ 22.3 µg/mL)			> 150
c1ccc(CNC2CCCCC2)cc1 [B7]		> 150	> 150		> 150			> 150
c1ccc(CNCCN2CCc3ccccc3C2)cc1 [B129]		> 150	> 150		> 150			> 150
COC1CCCCC1CCNCc1ccccc1 (stereo not shown) [B190]		> 300	> 300		> 150			> 300
CC(CC1CCCCC1)NCc1ccccc1OC1CCCC1 (stereo not shown) [B288]					91 (≈ 28.7 µg/mL)	3 (≈ 0.947 µg/mL)	> 150	150 (≈ 47.3 µg/mL)
Cc1noc(COc2ccccc2CNC(C)CC2CCCCC2)n1 (stereo not shown) [B278]					> 150	12 (≈ 4.12 µg/mL)	> 150	> 150
c1ccc(CNCCC2CCCCN2)cc1 (stereo not shown) [B360]					> 150	> 150	> 150	> 150
CC(C)(CNCc1ccccc1)C1=CCCCC1 [B72]		> 150	> 150		> 150			> 150
FC1(F)Oc2ccc(CCNCc3ccccc3)cc2O1 [B120]	> 150	> 150	> 150	> 150				
c1cc(CNCCC2CCCCC2)c2c(c1)OCO2 [B374]					150 (≈ 39.2 µg/mL)	> 150	> 150	> 150
CC(CC1CCCCC1)NCc1ccccc1OCC1CCCO1 (stereo not shown) [B297]					> 150	7 (≈ 2.32 µg/mL)	> 150	150 (≈ 49.7 µg/mL)
COC(=O)Cn1ccc2cccc(CNC(C)CC3CCCCC3)c21 (stereo not shown) [B435, methyl 2-(7-(((1-cyclohexylpropan-2-yl)amino)methyl)-1H-indol-1-yl)acetate hydrochloride]		150	> 150		> 150			> 150
c1ccc(CNCC2CCCc3ccccc32)cc1 (stereo not shown) [B127]		> 150	> 150		150 (≈ 37.7 µg/mL)			> 150
CC(CC1CCCCC1)NCc1ccccc1OCc1ccncc1 (stereo not shown) [B283]					150 (≈ 50.8 µg/mL)	7 (≈ 2.37 µg/mL)	91 (≈ 30.8 µg/mL)	91 (≈ 30.8 µg/mL)

Compound	MIC (H37RvMA) [µM]	MIC (E. coli; [1]) [µM]	MIC (E. coli; [2]) [µM]	MIC (A. baumannii; [3]) [µM]	MIC (H37RvMA; WT H37Rv MTB) [µM]	MIC (E. coli; [4]) [µM]	MIC (E. coli; [5]) [µM]	MIC (A. baumannii; [6]) [µM]
O=C1CCc2ccccc2CN1CCC1CCCCC1 [B425, 2-(2-cyclohexylethyl)-1,2,4,5-tetrahydro-3H-benzo[c]azepin-3-one]		33 (≈ 8.96 µg/mL)	> 150		> 150			> 150
CC(CC1CCCCC1)NCc1ccccc1OCC(=O)N(C)C (stereo not shown) [B320]					> 150	20 (≈ 6.65 µg/mL)	> 150	> 150
COC1(CC(C)NCc2ccccc2)CCC1 (stereo not shown) [B52]		> 150	> 150		> 150			> 150
CN1CC(COc2ccccc2CNCCC2=CCCCC2)OC1=O (stereo not shown) [B371]					> 150	33 (≈ 11.4 µg/mL)	> 150	> 150
O=C1c2ccccc2CN1CCC1CCCCC1 [B419, 2-(2-cyclohexylethyl)isoindolin-1-one]		150 (≈ 36.5 µg/mL)	> 150		0.6 (≈ 0.146 µg/mL)			> 150
CC(CC1CCCCC1)NCc1ccccc1OCC1(CO)COC1 (stereo not shown) [B269]					> 150	7 (≈ 2.43 µg/mL)	> 150	55 (≈ 19.1 µg/mL)
CC(CC1CCCCC1)NCc1ccccc1OCCCn1c(=O)[nH]c2ccccc21 (stereo not shown) [B247]					> 150	2 (≈ 0.843 µg/mL)	150 (≈ 63.2 µg/mL)	91 (≈ 38.4 µg/mL)
COc1ccc2ccccc2c1CCNCc1ccccc1 [B200]					91 (≈ 26.5 µg/mL)	170 (≈ 49.5 µg/mL)	> 300	300 (≈ 87.4 µg/mL)
CC1CCCC(CCN2Cc3ccccc3CC2=O)C1 (stereo not shown) [B464, 2-(2-(3-methylcyclohexyl)ethyl)-1,4-dihydroisoquinolin-3(2H)-one]		90 (≈ 24.4 µg/mL)	> 150		2 (≈ 0.543 µg/mL)			> 150
OB(O)c1ccccc1CNCCC1CCCCC1 [B340, 2-((2-cyclohexylethylamino)methyl)phenylboronic acid]					> 150	55 (≈ 14.4 µg/mL)	> 150	> 150
CCNC(=O)COc1ccccc1CNC(C)CC1CCCCC1 (stereo not shown) [B239]					> 150	20 (≈ 6.65 µg/mL)	> 150	> 150
CC(C)c1ccccc1CNCCC1CCCCC1 [B227, 2-cyclohexyl-N-(2-isopropylbenzyl)ethanamine hydrochloride]					150	12	170	170
CC(CC1CCCCC1)NCc1ccccc1CS(C)(=O)=O (stereo not shown) [B424, 1-cyclohexyl-N-(2-((methylsulfonyl)methyl)benzyl)propan-2-amine]		3 (≈ 0.971 µg/mL)	33 (≈ 10.7 µg/mL)		> 150			150 (≈ 48.5 µg/mL)
CC(CC1CCCCC1)NCc1ccccc1CS(=O)(=O)N1CCN(C)CC1 (stereo not shown) [B439, 1-cyclohexyl-N-(2-(((4-methylpiperazin-1-yl)sulfonyl)methyl)benzyl)propan-2-amine]		12 (≈ 4.89 µg/mL)	91 (≈ 37.1 µg/mL)		> 150			150 (≈ 61.1 µg/mL)
c1ccc(CNCCc2cccc3ccccc23)cc1 [B192]		96 (≈ 25.1 µg/mL)	300 (≈ 78.4 µg/mL)		33 (≈ 8.63 µg/mL)			300 (≈ 78.4 µg/mL)
COc1ccccc1CNCCC1CCCCC1 [B253, 2-cyclohexyl-N-(2-methoxybenzyl)ethanamine hydrochloride]					> 150	37	150	> 150
CC(CC1CCCCC1)NCc1ccccc1OCC(=O)N1CCOC(C)C1 (stereo not shown) [B316]					> 150	7 (≈ 2.72 µg/mL)	> 150	> 150
CC(CC1CCCCC1)NCc1ccccc1CS(=O)(=O)N(C)C[C@H](O)CO (stereo partly drawn) [B438, 1-(2-(((1-cyclohexylpropan-2-yl)amino)methyl)phenyl)-N-((S)-2,3-dihydroxypropyl)-N-methylmethanesulfonamide]		7 (≈ 2.89 µg/mL)	150 (≈ 61.9 µg/mL)		> 150			> 150
O=C(O)c1ccccc1CNCCC1CCCCC1 [B257, 2-((2-cyclohexylethylamino)methyl)benzoic acid hydrochloride]					> 150	67	> 150	> 150
CC(NCc1ccccc1)C1[C@H]2C[C@@H]3C[C@@H](C[C@H]1C3)C2 (stereo partly shown) [B191]		300 (≈ 80.8 µg/mL)	> 300		> 150			300 (≈ 80.8 µg/mL)
